CC1(C)CO[P+]([O-])(Oc2c(Br)cc(Br)cc2Br)OC1
solubility (mole fraction)
Settings	in THF	in acetone	in acetonitrile	in chloroform	in dichloromethane	in ethanol	in ethyl acetate	in methanol	in methyl acetate	in toluene
288.15 K	–	–	–	0.0801	0.0492	–	–	–	0.0053	–
293.15 K	0.024	0.0131	0.00399	0.0844	0.0546	0.0025	0.00497	0.00195	0.00649	0.00784
298.15 K	0.0258	0.0153	0.00504	0.0882	0.0594	0.00298	0.00564	0.0024	0.00765	0.009
303.15 K	0.0303	0.0171	–	0.0947	0.0653	0.00358	–	0.00296	0.00867	0.0103
308.15 K	0.0329	0.0194	0.00755	0.1	0.0712	0.00414	0.00748	0.00354	0.0107	–
313.15 K	0.0374	0.0226	0.00936	0.106	–	0.00465	0.00853	0.00424	0.0119	0.0145
318.15 K	0.0409	0.0254	–	0.113	–	0.00556	0.00951	–	0.0138	–
323.15 K	0.0448	0.0295	0.0128	–	–	0.00643	0.0111	0.00614	0.0163	0.0195
328.15 K	–	–	–	0.124	–	–	0.0127	–	–	–
333.15 K	–	–	0.0184	–	–	0.00795	0.0143	0.0081	–	0.0268
343.15 K	–	–	0.0265	–	–	–	–	–	–	0.0349

— BigSolDB 2.1
